Assay results taken from publication PMC8015227, “Understanding the Metabolism of Proteolysis Targeting Chimeras (PROTACs): The Next Step toward Pharmaceutical Applications” (Journal of Medicinal Chemistry, 2020).
Like-named read-outs stand apart in the source and are kept apart here.

Legend:
[1] = Metabolic stability in cryopreserved human hepatocytes; assay type: in vitro ADME; details: human
Method: (§1) Cryopreserved human hepatocytes (pooled suspension hepatocytes, Gibco) were thawed placing in a 37 °C shaking water bath according to the manufacturer’s specifications and resuspended in Williams E medium (WEM) to have 1 × 10^6 cells/mL. Samples with the test compound at 1 μM were incubated at 37 °C, and aliquots of 50 μL were collected at 0, 10, 30, 60, 120, and 240 min. The incubations were quenched 1:3 with ice-cold acetonitrile (containing 1 μM labetalol as the internal standard). Samples were then centrifuged at 12000 rpm for 5 min at 4 °C. The supernatant was concentrated by evaporation under a nitrogen stream and reconstituted with DMSO. Blank was prepared similarly but in the absence of the investigated compounds.
(§2) A Thermo Q-exactive mass spectrometer (Thermo Fisher Scientific, Waltham, MA) was used. The LC system, governed by Chromeleon X-press software, consists of a Binary pump, a thermostated autosampler, and a column compartment, all Dionex Ultimate 3000 series modules (Thermo Fisher Scientific, Waltham, MA). A volume of 2 μL was injected for each sample. Chromatographic separation of analytes was conducted in reverse-phase chromatography. In brief, a Luna Omega 1.6 μm Polar (C18, 2.1 mm × 150 mm) was used, and the mobile phases consisted of water (A) and acetonitrile (B), both containing formic acid at 0.1%. The LC flow was set at 0.400 mL/min in a 12 min gradient elution as follows: 99.5:0.5 (A/B) to 5:95 (A/B) over 10 min, 5:95 (A/B) for 2 min, and then reversion back to 99.5:0.5 (A/B) over 2.5 min. The column was operating at a constant temperature of 40 °C.

[2] = Nonenzymatic stability of 1 (dBet1) in the autosampler in four solutions during LC-MS; assay type: physicochemical; details: for nonenzymatic stability in autosampler: 12 h
Method: dBet1 (1) (10 mM in DMSO) was diluted 1:1000 in PBS/ACN (50:50, vol/vol) to afford a final concentration of 10 μM; 100 μL was drawn and dried under a gentle nitrogen stream at 40 °C for 30 min. After that evaporation was completed, the dry residue was reconstituted with 100 μL of DMSO. Additional three solutions of dBet1 (1) (10 μM) were prepared in PBS, PBS/ACN (50:50, vol/vol), and DMSO. The four solutions were stored into the autosampler of the LC apparatus at 37 °C for 12 h. Injections (2 μL) were programmed every 3 h.

CYP3A4 = CYP3A4 (Homo sapiens, UniProt P08684); assay: in vitro; details: pH 7.4
Chain of CYP3A4 (P08684 whole entry): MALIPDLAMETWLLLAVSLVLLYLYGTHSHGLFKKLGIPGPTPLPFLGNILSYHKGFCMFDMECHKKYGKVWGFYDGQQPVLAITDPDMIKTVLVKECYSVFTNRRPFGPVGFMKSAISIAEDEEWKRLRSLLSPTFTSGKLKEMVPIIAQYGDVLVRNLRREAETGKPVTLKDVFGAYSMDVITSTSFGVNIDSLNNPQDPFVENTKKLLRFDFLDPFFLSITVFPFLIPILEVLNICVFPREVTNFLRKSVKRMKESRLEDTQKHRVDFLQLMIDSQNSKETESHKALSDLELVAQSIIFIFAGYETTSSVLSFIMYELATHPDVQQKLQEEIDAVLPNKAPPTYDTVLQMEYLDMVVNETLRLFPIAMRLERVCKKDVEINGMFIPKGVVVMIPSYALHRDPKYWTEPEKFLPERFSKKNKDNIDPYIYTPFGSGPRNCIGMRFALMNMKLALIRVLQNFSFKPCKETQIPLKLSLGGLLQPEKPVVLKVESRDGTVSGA
Method: Metabolism of the selected compounds was evaluated upon incubation with human liver cytosol (Gibco) and supersome recombinant CYP isoforms 3A4 expressed in baculovirus-infected insect cells (Gibco). For metabolism in CYP3A4, test compounds (1 μM) were incubated in 0.1 M potassium phosphate buffer (pH 7.4) and allowed to equilibrate at 37 °C. Freshly prepared 25 mM nicotinamide adenine dinucleotide phosphate (NADPH, 1 mM final concentration) was added to the incubation mixture to start the reaction. For metabolism in human liver cytosol, reactions were initiated by adding test compounds (1 μM) to the mix reaction constituted by the human liver cytosol (1 mg/mL) prewarmed in potassium phosphate buffer (pH 7.4). […] In both procedures, aliquots (50 μL) of the incubation mix were removed at 0, 10, 20, 30, and 60 min (CYP3A4) or 0, 30, 60, and 90 min (human liver cytosol) and added to 50 μL of ice-cold acetonitrile quench solution (internal standard, 1 μM labetalol) to stop the reaction. Samples were then centrifuged at 12 000 rpm for 5 min at 4 °C. The supernatant was concentrated by evaporation under a nitrogen stream and reconstituted in DMSO. The blank was prepared similarly but in the absence of the investigated compounds. Samples were then analyzed by LC–MS/MS (see the Analytical procedure).
as §2

[3] = tested on: cryopreserved human hepatocytes; assay: Metabolic stability in cryopreserved human hepatocytes; assay type: in vitro ADME
Method: as §1, §2

[4] = cryopreserved human hepatocytes (pooled, suspension), Figures 3-5, cryopreserved human hepatocytes, read-out: half-life (t1/2)
[5] = cryopreserved human hepatocytes (pooled, suspension), Table S1, PROTACs, cryopreserved human hepatocytes, read-out: t1/2
[6] = cryopreserved human hepatocytes (pooled, suspension), supplement CSV, human hepatocytes, read-out: HLH t1/2
[7] = supplement CSV, in brackets, final time point 240 min
[8] = cryopreserved human hepatocytes (pooled, suspension), Table 2, cryopreserved human hepatocytes, read-out: t1/2
[9] = Table 2, biotransformations observed in cryopreserved human hepatocytes
[10] = cryopreserved human hepatocytes (pooled, suspension), Table 1, incubation in cryopreserved human hepatocytes, 1 μM, up to 240 min, read-out: t1/2
[11] = Table 1, biotransformations observed in cryopreserved human hepatocytes
[12] = cryopreserved human hepatocytes (pooled, suspension), Table S2, free ligands, cryopreserved human hepatocytes, read-out: t1/2

In the case of `Cc1sc2c(c1C)C(c1ccc(Cl)cc1)=N[C@@H](CC(=O)NCCCCNC(=O)COc1cccc3c1C(=O)N(C1CCC(=O)NC1=O)C3=O)c1nnc(C)n1-2` (stereo partly drawn) [Compound 1, dBet1], the half-life at 1 µM [1, 4] was 135 min, the half-life at 1 µM [1, 5] was 135 min and the half-life at 1 µM [1, 6] was 135 min. For the same compound, the “nonenzymatic stability in autosampler” value ([2]; PBS/ACN (1:1 v/v), 37 °C) was “Degradation was also observed”, the “substrate degradation within the first three hours” value ([2]; PBS/ACN-DMSO protocol, autosampler 37 °C) was “about 10%” and the “nonenzymatic stability in autosampler” value ([2]; pure DMSO, 37 °C) was “very stable over time”. For the same compound, the “nonenzymatic stability in autosampler” value ([2]; pure PBS pH 7.4, 37 °C) was “rapidly degrades”.

In the case of `Cc1sc2c(c1C)C(c1ccc(Cl)cc1)=N[C@@H](CC(=O)NCCOCCOCCNc1cccc3c1C(=O)N(C1CCC(=O)NC1=O)C3=O)c1nnc(C)n1-2` (stereo partly drawn) [Compound 5, 2-((S)-4-(4-Chlorophenyl)-2,3,9-trimethyl-6H-thieno[3,2-f][1,2,4]triazolo[4,3-a][1,4]diazepin-6-yl)-N-(2-(2-(2-((2-(2,6-dioxopiperidin-3-yl)-1,3-dioxoisoindolin-4-yl)amino)ethoxy)ethoxy)ethyl)acetamide], the half-life at 1 µM [1, 5] was 49.4 min, the half-life at 1 µM [1, 6] was 49.4 min and the half-life at 1 µM (CYP3A4) was 1.1 min.

In the case of `Cc1ncsc1-c1ccc([C@H](C)NC(=O)[C@@H]2C[C@@H](O)CN2C(=O)[C@@H](NC(=O)CCCCn2cc(CCCC(=O)N3CCN(C(=O)c4cc(Cc5n[nH]c(=O)c6ccccc56)ccc4F)CC3)nn2)C(C)(C)C)cc1` [Compound 25, (2S,4R)-1-((S)-2-(5-(4-(4-(4-(2-Fluoro-5-((4-oxo-3,4-dihydrophthalazin-1-yl)methyl)benzoyl)piperazin-1-yl)-4-oxobutyl)-1H-1,2,3-triazol-1-yl)pentanamido)-3,3-dimethylbutanoyl)-4-hydroxy-N-((S)-1-(4-(4-methylthiazol-5-yl)phenyl)ethyl)pyrrolidine-2-carboxamide], the half-life at 1 µM [1, 4] was > 240 min, the half-life at 1 µM [1, 5] was > 240 min and the half-life at 1 µM [1, 6] was > 240 min. The substrate left ([3]; cryopreserved human hepatocytes, end of incubation (240 min)) was “about 84%” and the “HLH percentage of substrate left at the final time point of analysis” value (from here on “HLH percentage of substrate left”) [3, 7] was 84.7%.

Work on `O=C(COc1cccc2c1C(=O)N(C1CCC(=O)NC1=O)C2=O)NCCCCCCCCNC(=O)COc1c(-c2csc(N3CCOCC3)n2)ccc(F)c1F` (stereo not drawn) [Compound 26, 2-(2,3-Difluoro-6-(2-morpholinothiazol-4-yl)phenoxy)-N-(8-(2-((2-(2,6-dioxopiperidin-3-yl)-1,3-dioxoisoindolin-4-yl)oxy)acetamido)octyl)acetamide] yielded a half-life at 1 µM [1, 4] of 8.4 min, a half-life at 1 µM [1, 8] of 8.4 min and a half-life at 1 µM [1, 5] of 8.4 min. The half-life at 1 µM [1, 6] was 8.4 min and the “Reaction (soft spots)” value [3, 9] was “a. Amide hydrolysis b. N-dealkylation c. O-dealkylation”.

For `O=C(COc1cccc2c1C(=O)N(C1CCC(=O)NC1=O)C2=O)NCCOCCOCCNC(=O)COc1c(-c2csc(N3CCOCC3)n2)ccc(F)c1F` (stereo not drawn) [Compound 27, 2-(2,3-Difluoro-6-(2-morpholinothiazol-4-yl)phenoxy)-N-(2-(2-(2-(2-((2-(2,6-dioxopiperidin-3-yl)-1,3-dioxoisoindolin-4-yl)oxy)acetamido)ethoxy)ethoxy)ethyl)acetamide], the half-life at 1 µM [1, 8] was 39.4 min, the half-life at 1 µM [1, 5] was 39.4 min and the half-life at 1 µM [1, 6] was 39.4 min. For the same compound, the “Reaction (soft spots)” value [3, 9] was “a. Amide hydrolysis b. O-dealkylation (x3) c. Aliphatic-hydroxylation”.

Work on `O=C(COc1c(-c2csc(N3CCOCC3)n2)ccc(F)c1F)NCCCCCCNc1cccc2c1C(=O)N(C1CCC(=O)NC1=O)C2=O` (stereo not drawn) [Compound 29, 2-(2,3-Difluoro-6-(2-morpholinothiazol-4-yl)phenoxy)-N-(6-((2-(2,6-dioxopiperidin-3-yl)-1,3-dioxoisoindolin-4-yl)amino)hexyl)acetamide] yielded a half-life at 1 µM [1, 5] of 53.5 min, a half-life at 1 µM [1, 6] of 53.5 min and a half-life at 1 µM (CYP3A4) of 7.4 min.

`O=C(COc1c(-c2csc(N3CCOCC3)n2)ccc(F)c1F)NCCCCCCCCNc1cccc2c1C(=O)N(C1CCC(=O)NC1=O)C2=O` (stereo not drawn) [Compound 30, 2-(2,3-Difluoro-6-(2-morpholinothiazol-4-yl)phenoxy)-N-(8-((2-(2,6-dioxopiperidin-3-yl)-1,3-dioxoisoindolin-4-yl)amino)octyl)acetamide] showed a half-life at 1 µM [1, 8] of 47.6 min, a half-life at 1 µM [1, 5] of 47.6 min and a half-life at 1 µM [1, 6] of 47.6 min. For the same compound, the “Reaction (soft spots)” value [3, 9] was “a. Amide hydrolysis b. N-dealkylation c. O-dealkylation d. Aliphatic-hydroxylation”.

With `Cc1ncsc1-c1ccc([C@H](C)NC(=O)[C@@H]2C[C@@H](O)CN2C(=O)[C@@H](NC(=O)CCCCCCNC(=O)COc2c(-c3csc(N4CCOCC4)n3)ccc(F)c2F)C(C)(C)C)cc1` [Compound 35] the half-life at 1 µM [1, 4] was 25 min, the half-life at 1 µM [1, 5] was 25 min and the half-life at 1 µM [1, 6] was 25 min. For the same compound, the half-life at 1 µM (CYP3A4) was 1.7 min.

With `Cc1ncsc1-c1ccc([C@H](C)NC(=O)[C@@H]2C[C@@H](O)CN2C(=O)[C@@H](NC(=O)COCCOCCNC(=O)COc2c(-c3csc(N4CCOCC4)n3)ccc(F)c2F)C(C)(C)C)cc1` [Compound 37] the half-life at 1 µM [1, 10] was 37.6 min, the half-life at 1 µM [1, 5] was 37.6 min and the half-life at 1 µM [1, 6] was 37.6 min. The “Reaction (soft spots)” value [3, 11] was “a. O-dealkylation (x5) b. Amide Hydrolysis (x2) c. Glucuronidation d. Dehydrogenation”.

In the case of `Cc1ncsc1-c1ccc([C@H](CC(=O)NCCCCCCNC(=O)COc2c(-c3csc(N4CCOCC4)n3)ccc(F)c2F)NC(=O)[C@@H]2C[C@@H](O)CN2C(=O)[C@@H](NC(=O)C2(F)CC2)C(C)(C)C)cc1` [Compound 40], the half-life at 1 µM [1, 4] was 66.7 min, the half-life at 1 µM [1, 5] was 66.7 min and the half-life at 1 µM [1, 6] was 66.7 min. It also gave a half-life at 1 µM (CYP3A4) of 22.6 min.

Work on `Nc1cccc2c1C(=O)N(C1CCC(=O)NC1=O)C2=O` (stereo not drawn) [Compound 41, pomalidomide, reference compound] yielded a half-life at 1 µM [1, 10] of 140 min, a half-life at 1 µM [1, 12] of 140 min and a half-life at 1 µM [1, 6] of 140 min. The “Reaction (soft spots)” value [3, 11] was “a. Amide Hydrolysis (x4)”.

`Cc1ncsc1-c1ccc([C@H](C)NC(=O)[C@@H]2C[C@@H](O)CN2C(=O)[C@@H](N)C(C)(C)C)cc1` [Compound 42, reference compound] gave a half-life at 1 µM [1, 10] of 92 min, a half-life at 1 µM [1, 12] of 92 min and a half-life at 1 µM [1, 6] of 92 min. For the same compound, the “Reaction (soft spots)” value [3, 11] was “a. N-dealkylation b. Aromatic hydroxylation c. Aliphatic-hydroxylation d. Aliphatic-carbonylation”.

With `Cc1sc2c(c1C)C(c1ccc(Cl)cc1)=N[C@@H](CC(=O)O)c1nnc(C)n1-2` [Compound 43, (+)-JQ1, reference compound] the half-life at 1 µM ([1]; hepatocytes, HLH t1/2 (min)) was > 240 min, the half-life at 1 µM ([1]; hepatocytes, t1/2 (min)) was > 240 min and the “Reaction (soft spots)” value [3] was “a. Aliphatic-hydroxylation”. For the same compound, the “HLH percentage of substrate left” value ([3]; human, 240 min, 1 µM) was 100.0%.

With `Cl.O=C(c1cc(Cc2n[nH]c(=O)c3ccccc23)ccc1F)N1CCNCC1` [Compound 45, reference compound] the half-life at 1 µM [1, 12] was > 240 min, the half-life at 1 µM [1, 6] was > 240 min and the “HLH percentage of substrate left” value [3, 7] was 77.7%.

With `Oc1c(-c2csc(N3CCOCC3)n2)ccc(F)c1F` [Compound 46, reference compound] the half-life at 1 µM [1, 4] was < 20 min, the half-life at 1 µM [1, 10] was 18.3 min and the half-life at 1 µM [1, 12] was 18.3 min. For the same compound, the half-life at 1 µM [1, 6] was 18.3 min and the “Reaction (soft spots)” value [3, 11] was “a. O-dealkylation b.Glucuronidation c. Aliphatic hydroxylation”.
